Laboratory results: US11447460B2, “Compounds and compositions for treating conditions associated with NLRP activity” (Novartis AG, priority 2016, dated 2022)

tested on: IL-1β production in PMA-differentiated THP-1 cells; assay: IL-1β production in PMA-differentiated THP-1 cells stimulated with gramicidin (hTHP-1 assay, 2% bovine serum; Bioassays 1 and 2); assay type: cell-based, human; settings: Homo sapiens, THP-1; hTHP-1 assay containing 2% bovine serum; Table 12, by Example #; read-out: Average IC50 of compounds in hTHP-1 assay
Protocol: IL-1β Production in PMA-Differentiated THP-1 Cells Stimulated with Gramicidin.
Cell culture-THP-1 cells were purchased from the American Type Culture Collection and sub-cultured according to instructions from the supplier. Prior to experiments, cells were cultured in RPMI 1640 containing 10% heat inactivated FBS, penicillin (100 units/ml) and streptomycin (100 μg/ml), and maintained in log phase prior to experimental setup. Prior to the experiment THP-1 were treated with PMA (Phorbol 12-myristate 13-acetate) (10 μg/ml) for 24 hours. The day of the experiment the media was removed and attaching cells were treated with trypsin for 2 minutes, cells were then collected, washed with PBS (phosphate buffer saline), spin down, resuspended in 2% heat inactivated FBS with RPMI at a concentration of 1×10^6 cells/ml, and 100 ul was plated in a 96 well plate. Cells were incubated with compounds for 1 hours and then stimulated with Gramicidin (5 μM) (Enzo) for 2 hours. Cell free supernatant was collected and the production of IL-1β was evaluated by ELISA. Compounds were dissolved in dimethyl sulfoxide (DMSO) and added to the culture medium to achieve desired concentration (e.g. 100, 30, 10, 3, 1, 0.3 or 0.1 μM). A vehicle only control was run concurrently with each experiment. Final DMSO concentration was 1%.
THP-1 cells were purchased from the American Type Culture Collection and sub-cultured according to instructions from the supplier. Prior to experiments, cells were cultured in complete RPMI 1640 (containing 10% heat inactivated FBS, penicillin (100 units/ml) and streptomycin (100 μg/ml)), and maintained in log phase prior to experimental setup. Prior to the experiment THP-1 were treated with PMA (Phorbol 12-myristate 13-acetate) (20 ng/ml) for 16-18 hours. On the day of the experiment the media was removed and adherent cells were detached with trypsin for 5 minutes. Cells were then harvested, washed with complete RPMI 1640, spun down, resuspended in RPMI 1640 (containing 2% heat inactivated FBS, penicillin (100 units/ml) and streptomycin (100 μg/ml). The cells were plated in a 384-well plate at a density of 50,000 cells/well (final assay volume 50 μl). Compounds were dissolved in dimethyl sulfoxide (DMSO) and added to the culture medium to achieve desired concentration (e.g. 100, 33, 11, 3.7, 1.2, 0.41, 0.14, 0.046, 0.015, 0.0051, 0.0017 μM). Cells were incubated with compounds for 1 hour and then stimulated with gramicidin (5 μM) (Enzo) for 2 hours. Cell free supernatant was collected and the production of IL-10 was evaluated by HTRF (cisbio). A vehicle only control was run concurrently with each experiment. Final DMSO concentration was 0.38%.
Compounds tested with protocols 1 and 2 provided IC50 values that are within the variability of the assay.
Tables 12 and 13 show the biological activity of compounds in hTHP-1 assay containing 2% bovine serum: <1 μM=“++++”; ≥1 and <5 μM=“+++”; ≥5 and <15 μM=“++”; ≥15 and <60 μM=“+”.

SMILES	IC50 [µM]
CC(C)c1cc(C#N)cc(C(C)C)c1CC(=O)NS(=O)(=O)c1ccc(C(C)(C)O)nc1 [Example 37, 2-(4-cyano-2,6-diisopropylphenyl)-N-(6-(2-hydroxypropan-2-yl)pyridin-3-ylsulfonyl)acetamide]	5 to 15
CC(C)c1cc(F)cc(C(C)C)c1CC(=O)NS(=O)(=O)c1ccc(C(C)(C)O)nc1 [Example 36, 2-(4-fluoro-2,6-diisopropylphenyl)-N-(6-(2-hydroxypropan-2-yl)pyridin-3-ylsulfonyl)acetamide]	1 to 5
CC(C)c1cc(F)cc(C(C)C)c1CC(=O)NS(=O)(=O)c1cc(C(C)(C)O)cs1 [Example 9, 2-(4-fluoro-2,6-diisopropylphenyl)-N-(4-(2-hydroxypropan-2-yl)thiophen-2-ylsulfonyl)acetamide]	< 1
Cc1oc(S(=O)(=O)NC(=O)Cc2c(C(C)C)cc(F)cc2C(C)C)cc1C(C)(C)O [Example 18, 2-(4-fluoro-2,6-diisopropylphenyl)-N-(4-(2-hydroxypropan-2-yl)-5-methylfuran-2-ylsulfonyl)acetamide]	1 to 5
CC(C)c1cc(F)cc(C(C)C)c1CC(=O)NS(=O)(=O)c1ccc(C(C)(C)O)cc1 [Example 34, 2-(4-fluoro-2,6-diisopropylphenyl)-N-(4-(2-hydroxypropan-2-yl)phenylsulfonyl)acetamide]	1 to 5
CC(C)c1cc(C#N)cc(C(C)C)c1CC(=O)NS(=O)(=O)c1cc(C(C)(C)O)cc(C(C)(C)O)c1 [Example 31, N-(3,5-bis(2-hydroxypropan-2-yl)phenylsulfonyl)-2-(4-cyano-2,6-diisopropylphenyl)acetamide]	5 to 15
CC(C)c1cccc(C(C)C)c1CC(=O)NS(=O)(=O)c1cc(C2(O)CC2)cs1 [Example 14, 2-(2,6-diisopropylphenyl)-N-(4-(1-hydroxycyclopropyl)thiophen-2-ylsulfonyl)acetamide]	1 to 5
CC(C)c1cccc(C(C)C)c1CC(=O)NS(=O)(=O)c1cc(-c2ccncc2)cc(C(C)(C)O)c1 [Example 22, 2-(2,6-diisopropylphenyl)-N-(3-(2-hydroxypropan-2-yl)-5-(pyridin-4-yl)phenylsulfonyl)acetamide]	15 to 60
CC(C)c1cc(F)cc(C(C)C)c1CC(=O)NS(=O)(=O)c1cccc(C(C)(C)O)c1 [Example 25, 2-(4-fluoro-2,6-diisopropylphenyl)-N-(3-(2-hydroxypropan-2-yl)phenylsulfonyl)acetamide]	1 to 5
CC(C)c1c(F)c(Cl)c(F)c(C(C)C)c1CC(=O)NS(=O)(=O)c1cc(C(C)(C)O)cs1 [Example 12, 2-(4-chloro-3,5-difluoro-2,6-diisopropylphenyl)-N-(4-(2-hydroxypropan-2-yl)thiophen-2-ylsulfonyl)acetamide]	< 1
CC(C)c1cc(C#N)cc(C(C)C)c1CC(=O)NS(=O)(=O)c1ncc(C(C)(C)O)s1 [Example 6, 2-(4-cyano-2,6-diisopropylphenyl)-N-(5-(2-hydroxypropan-2-yl)thiazol-2-ylsulfonyl)acetamide]	1 to 5
CC(C)c1cc(F)cc(C(C)C)c1CC(=O)NS(=O)(=O)c1cc(Cl)cc(C(C)(C)O)c1 [Example 27, N-(3-chloro-5-(2-hydroxypropan-2-yl)phenylsulfonyl)-2-(4-fluoro-2,6-diisopropylphenyl)acetamide]	1 to 5
CC(C)c1cccc(C(C)C)c1CC(=O)NS(=O)(=O)c1ccc(C(C)(C)O)cc1 [Example 21, 2-(2,6-diisopropylphenyl)-N-(4-(2-hydroxypropan-2-yl)phenylsulfonyl)acetamide]	1 to 5

Now from value to compound:

IC50 [µM]	SMILES
15 to 60	CC(C)c1cc(C#N)cc(C(C)C)c1CC(=O)NS(=O)(=O)c1nc(C(C)(C)O)cs1 [Example 82, 2-(4-cyano-2,6-diisopropylphenyl)-N-(4-(2-hydroxypropan-2-yl)thiazol-2-ylsulfonyl)acetamide]
5 to 15	CC(C)c1cc(F)cc(C(C)C)c1CC(=O)NS(=O)(=O)c1ncc(CCO)s1 [Example 97, 2-(4-fluoro-2,6-diisopropylphenyl)-N-(5-(2-hydroxyethyl)thiazol-2-ylsulfonyl)acetamide]
< 1	CC(C)c1cc(F)c(F)c(C(C)C)c1CC(=O)NS(=O)(=O)c1ncc(C(C)(C)O)s1 [Example 76, 2-(3,4-difluoro-2,6-diisopropylphenyl)-N-(5-(2-hydroxypropan-2-yl)thiazol-2-ylsulfonyl)acetamide]
15 to 60	CC(C)c1cc(Cl)cc(C(F)(F)F)c1CC(=O)NS(=O)(=O)c1ncc(C(C)(C)O)s1 [Example 79, 2-(4-chloro-2-isopropyl-6-(trifluoromethyl)phenyl)-N-(5-(2-hydroxypropan-2-yl)thiazol-2-ylsulfonyl)acetamide]
< 1	CC(C)c1cc(Cl)cc(C(C)C)c1CC(=O)NS(=O)(=O)c1ncc(C(C)(C)O)s1 [Example 70, 2-(4-chloro-2,6-diisopropylphenyl)-N-(5-(2-hydroxypropan-2-yl)thiazol-2-ylsulfonyl)acetamide]
1 to 5	CC(C)c1cc(OC(F)(F)F)cc(C(C)C)c1CC(=O)NS(=O)(=O)c1ncc(C(C)(C)O)s1 [Example 85, 2-(2,6-diisopropyl-4-(trifluoromethoxy)phenyl)-N-(5-(2-hydroxypropan-2-yl)thiazol-2-ylsulfonyl)acetamide]
15 to 60	COc1c(Cl)cc(Cl)cc1CC(=O)NS(=O)(=O)c1ncc(C(C)(C)O)s1 [Example 88, 2-(3,5-dichloro-2-methoxyphenyl)-N-(5-(2-hydroxypropan-2-yl)thiazol-2-ylsulfonyl)acetamide]
1 to 5	CC(C)c1cc(F)cc(C(C)C)c1CC(=O)NS(=O)(=O)c1ncc(C(C)O)s1 (centres unmarked) [Example 92, 2-(4-fluoro-2,6-diisopropylphenyl)-N-(5-(1-hydroxyethyl)thiazol-2-ylsulfonyl)acetamide]
1 to 5	Cc1cc(S(=O)(=O)NC(=O)Cc2c(C(C)C)cc(F)cc2C(C)C)ccc1C(C)(C)O [Example 47, 2-(4-fluoro-2,6-diisopropylphenyl)-N-(4-(2-hydroxypropan-2-yl)-3-methylphenylsulfonyl)acetamide]
5 to 15	CC(C)c1cc(Cl)cc(C(C)C)c1CC(=O)NS(=O)(=O)c1ccn(C(C)C)n1 [Example 61, 2-(4-chloro-2,6-diisopropylphenyl)-N-(1-isopropyl-1H-pyrazol-3-ylsulfonyl)acetamide]
5 to 15	CC(C)c1cc(C#N)cc(C(C)C)c1CC(=O)NS(=O)(=O)c1cc(C(C)(C)O)n(-c2ccccc2)n1 [Example 65, 2-(4-cyano-2,6-diisopropylphenyl)-N-(5-(2-hydroxypropan-2-yl)-1-phenyl-1H-pyrazol-3-ylsulfonyl)acetamide]
< 1	CC(C)c1cc(F)cc(C(C)C)c1CC(=O)NS(=O)(=O)c1ccc(C(C)(C)O)c(F)c1 [Example 53, 2-(4-fluoro-2,6-diisopropylphenyl)-N-(3-fluoro-4-(2-hydroxypropan-2-yl)phenylsulfonyl)acetamide]
15 to 60	CC1(c2ccc(F)c(S(=O)(=O)NC(=O)Cc3c4c(c(F)c5c3CCC5)CCC4)c2)OCCO1 [Example 57, 2-(8-fluoro-1,2,3,5,6,7-hexahydros-indacen-4-yl)-N-(2-fluoro-5-(2-methyl-1,3-dioxolan-2-yl)phenylsulfonyl)acetamide]
5 to 15	CC(C)c1cc(C#N)cc(C(C)C)c1CC(=O)NS(=O)(=O)c1cc(C(C)(C)O)n(C)n1 [Example 68, 2-(4-cyano-2,6-diisopropylphenyl)-N-(5-(2-hydroxypropan-2-yl)-1-methyl1H-pyrazol-3-ylsulfonyl)acetamide]
5 to 15	Cc1c(C(C)(C)O)cccc1S(=O)(=O)NC(=O)Cc1c(C(C)C)cc(F)cc1C(C)C [Example 44, 2-(4-fluoro-2,6-diisopropylphenyl)-N-(3-(2-hydroxypropan-2-yl)-2-methylphenylsulfonyl)acetamide]

same assay, conditions: hTHP-1 assay containing 2% bovine serum; Table 12, by Example #; read-out: Average IC50 of compounds in hTHP-1 assay

IC50 [µM]	SMILES
5 to 15	CC(C)(O)c1csc(S(=O)(=O)NC(=O)Cc2c3c(cc4c2CCC4)CCC3)c1 [Example 7, 2-(1,2,3,5,6,7-hexahydro-sindacen-4-yl)-N-(4-(2-hydroxypropan-2-yl)thiophen-2-ylsulfonyl)acetamide]
